{"source": "paper PMC4088988", "about": "(Bioorganic & medicinal chemistry, 2013)", "key": {"[1]": {"test_system": "glucocorticoid response element (GRE)", "test": "Transactivation assay, GRE-luciferase reporter in HEK-293 cells", "type": "cell-based", "details": "HEK-293 GRE-luciferase, 0.01 to 100 μg/ml, 6 h"}, "GR": {"biological_target": "T1, GR (Homo sapiens, UniProt P04150)", "T1 sequence (P04150 1-777)": "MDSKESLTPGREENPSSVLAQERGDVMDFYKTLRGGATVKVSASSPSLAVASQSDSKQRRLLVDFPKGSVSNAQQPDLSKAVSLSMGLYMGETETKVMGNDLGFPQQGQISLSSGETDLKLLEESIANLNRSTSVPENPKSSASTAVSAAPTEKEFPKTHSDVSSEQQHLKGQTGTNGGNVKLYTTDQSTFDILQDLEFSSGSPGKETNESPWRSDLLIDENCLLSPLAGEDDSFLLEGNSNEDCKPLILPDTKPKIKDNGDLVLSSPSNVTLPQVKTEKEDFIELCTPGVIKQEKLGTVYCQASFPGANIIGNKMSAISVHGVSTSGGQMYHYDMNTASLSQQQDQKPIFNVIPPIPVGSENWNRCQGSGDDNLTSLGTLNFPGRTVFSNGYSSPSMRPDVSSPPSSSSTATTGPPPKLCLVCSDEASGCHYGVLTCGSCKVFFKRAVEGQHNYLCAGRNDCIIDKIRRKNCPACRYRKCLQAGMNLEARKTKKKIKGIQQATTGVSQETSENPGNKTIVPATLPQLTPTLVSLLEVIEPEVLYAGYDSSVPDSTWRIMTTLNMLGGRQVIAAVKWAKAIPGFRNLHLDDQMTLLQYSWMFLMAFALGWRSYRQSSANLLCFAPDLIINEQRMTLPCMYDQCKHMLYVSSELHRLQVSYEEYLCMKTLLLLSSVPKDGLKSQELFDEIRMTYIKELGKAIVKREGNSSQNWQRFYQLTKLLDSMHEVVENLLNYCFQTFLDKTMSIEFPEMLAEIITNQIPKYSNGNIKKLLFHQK", "test": "GR Nuclear Translocation PathHunter assay", "type": "cell-based", "details": "for Rank GR translocation: rank among tested compounds; for GR translocation activity: Fig. 3"}, "[2]": {"test_system": "glucocorticoid receptor (GR)", "details": "cited from earlier work"}, "[3]": {"test_system": "mineralocorticoid receptor (MR)", "details": "cited from earlier work"}, "NF-κB": {"test_system": "NF-κB", "type": "cell-based", "details": "C2C12 myoblasts and myotubes, Fig. 2/3"}, "[4]": {"test": "Pharmacokinetics in CD1 mice, IV and PO", "type": "in vivo", "details": "for AUC0, total, unbound / Cmax, total, unbound: Table 4"}, "[5]": {"test": "Pharmacokinetics in Sprague–Dawley rats, IV and PO", "type": "in vivo"}, "[6]": {"test": "Pharmacokinetics in beagle dogs, IV and PO", "type": "in vivo"}, "[7]": {"test": "Metabolic stability in rat liver microsomes", "type": "in vitro ADME", "details": "60 min, NADPH"}, "CYP1A2": {"test_system": "CYP1A2", "test": "CYP1A2 induction in human hepatocytes", "type": "in vitro ADME", "details": "three human hepatocyte donors, 1, 10, 100 μM, relative to omeprazole"}, "CYP3A4": {"test_system": "CYP3A4", "test": "CYP3A4 induction in human hepatocytes", "type": "in vitro ADME", "details": "three human hepatocyte donors, 1, 10, 100 μM, % of positive control rifampin"}, "Ames test": {"test": "Ames test", "details": "Positive/negative"}, "Micronucleus test": {"test": "Micronucleus test", "details": "Positive/negative"}, "[8]": {"test": "Metabolite identification in human hepatocytes", "type": "in vitro ADME", "details": "10 μM, 2 and 4 h"}, "[9]": {"test": "Metabolite identification in monkey hepatocytes", "type": "in vitro ADME", "details": "10 μM, 2 and 4 h"}, "[10]": {"test": "Metabolite identification in dog hepatocytes", "type": "in vitro ADME", "details": "10 μM, 2 and 4 h"}, "[11]": {"test": "Metabolite identification in rat hepatocytes", "type": "in vitro ADME", "details": "10 μM, 2 and 4 h"}, "[12]": {"details": "single administration, cited from earlier work"}, "[13]": {"details": "CD1 mice, IV 10 mg/kg, 10 mg/kg"}}, "note": "Entries after “also recorded” stand apart in the source; their conditions may differ."}
{"smiles": "C[C@]12C=CC(=O)C=C1CC[C@@H]1[C@@H]2C(=O)C[C@@]2(C)[C@H]1CC[C@]2(O)C(=O)CO", "note": "[Prednisone, reference compound]", "values": [{"measurement": "GRE-dependent gene transcription (luciferase)", "setting": "[1]", "result": "induced luciferase expression"}]}
{"smiles": "C[C@]12CCC(=O)C=C1CC[C@@H]1C2=CC[C@@]2(C)[C@H]1CC[C@]2(O)C(=O)CO", "note": "[VBP1]", "values": [{"measurement": "Rank GR translocation", "setting": "GR", "result": 6}, {"measurement": "binding to the GR", "setting": "[2]", "result": "relatively high affinity binding"}, {"measurement": "binding to the MR", "setting": "[3]", "result": "relatively high affinity binding"}]}
{"smiles": "C[C@@H]1C[C@H]2[C@@H]3CCC4=CC(=O)C=C[C@]4(C)C3=CC[C@]2(C)[C@H]1C(=O)CO", "note": "[VBP6]", "values": [{"measurement": "NF-κB inhibition activity", "setting": "NF-κB", "result": "high activities"}, {"measurement": "GR translocation activity", "setting": "GR", "result": "high activities"}, {"measurement": "Rank GR translocation", "setting": "GR", "result": 4}, {"measurement": "AUC/D", "setting": "[4]; CD1 mice, IV 10 mg/kg", "result": 345, "unit": "ng·h/mL"}, {"measurement": "AUC/D", "setting": "[4]; CD1 mice, PO 50 mg/kg, 30% Labrafil", "result": 440, "unit": "ng·h/mL"}]}
{"smiles": "CC(=O)OCC(=O)[C@H]1[C@H](C)C[C@H]2[C@@H]3CCC4=CC(=O)C=C[C@]4(C)C3=CC[C@@]21C", "note": "[VBP7]", "values": [{"measurement": "NF-κB inhibition activity", "setting": "NF-κB", "result": "high activities"}, {"measurement": "GR translocation activity", "setting": "GR", "result": "high activities"}, {"measurement": "Rank GR translocation", "setting": "GR", "result": 7}]}
{"smiles": "C[C@@H]1C[C@H]2[C@@H]3CCC4=CC(=O)C=C[C@]4(C)C3=CC[C@]2(C)[C@@]1(O)C(=O)CO", "note": "[VBP15]", "values": [{"measurement": "NF-κB inhibition activity", "setting": "NF-κB", "result": "high activities"}, {"measurement": "GR translocation activity", "setting": "GR", "result": "high activities"}, {"measurement": "GRE-dependent gene transcription (luciferase)", "setting": "[1]", "result": "lack of transactivation properties; also recorded: lacks GRE-mediated transcriptional activity"}, {"measurement": "Clobs", "setting": "[4]; [13]", "result": "18.8 (IV) mL/min/kg"}, {"measurement": "Vssobs", "setting": "[4]; [13]", "result": "0.757 (IV) L/kg"}, {"measurement": "AUC0, total, unbound", "setting": "[4]; Mouse 10 mpk IV", "result": "8842 (IV) h ng/mL"}, {"measurement": "Cmax, total, unbound", "setting": "[4]; Mouse 10 mpk IV", "result": "11167 (IV) ng/mL"}, {"measurement": "AUC0, total, unbound", "setting": "[4]; Mouse 50 mpk PO", "result": "32932 (PO) h ng/mL"}, {"measurement": "Cmax, total, unbound", "setting": "[4]; Mouse 50 mpk PO, 50 mg/kg", "result": "6787 (PO) ng/mL"}, {"measurement": "AUC0, total, unbound", "setting": "[5]; Rat 10 mpk IV", "result": "8339 (IV) h ng/mL"}, {"measurement": "AUC0, total, unbound", "setting": "[5]; Rat 50 mpk PO", "result": "19937 (PO) h ng/mL"}, {"measurement": "Cmax, total, unbound", "setting": "[5]; Rat 50 mpk PO, 50 mg/kg", "result": "2543 (PO) ng/mL"}, {"measurement": "AUC0, total, unbound", "setting": "[6]; Dog 10 mpk IV", "result": "6791 (IV) h ng/mL"}, {"measurement": "AUC0, total, unbound", "setting": "[6]; Dog 30 mpk PO", "result": "10844 (PO) h ng/mL"}, {"measurement": "Cmax, total, unbound", "setting": "[6]; Dog 30 mpk PO, 30 mg/kg", "result": "814 (PO) ng/mL"}, {"measurement": "Stability–microsomes, remaining at 1 h", "setting": "[7]", "result": "Rat = 35.4%"}, {"measurement": "CYP1A2 induction", "setting": "CYP1A2", "result": "no induction"}, {"measurement": "CYP3A4 induction", "setting": "CYP3A4", "result": "24–42%"}, {"measurement": "Ames test", "setting": "Ames test", "result": "Negative"}, {"measurement": "Micronucleus test", "setting": "Micronucleus test", "result": "Negative"}, {"measurement": "number of metabolites identified", "setting": "[8]", "result": "Four"}, {"measurement": "number of metabolites identified", "setting": "[9]", "result": "Four"}, {"measurement": "number of metabolites identified", "setting": "[10]", "result": 3}, {"measurement": "number of metabolites identified", "setting": "[11]", "result": 5}]}
{"smiles": "CC(=O)OCC(=O)[C@@]1(O)CC[C@@H]2[C@H]3CCC4=CC(=O)CC[C@]4(C)C3=CC[C@@]21C", "note": "[anecortave acetate, [2-[(8R,10S,13S,14R,17R)-17-hydroxy-10,13-dimethyl-3-oxo-2,6,7,8,12,14,15,16-octahydro-1H-cyclopenta[a]phenanthren-17-yl]-2-oxo-ethyl] acetate, reference compound]", "values": [{"measurement": "reduction in IOP", "setting": "[12]; best dose", "result": 31, "unit": "%"}, {"measurement": "mean duration of IOP benefit", "setting": "[12]", "result": 56, "unit": "days"}, {"measurement": "binding to the GR", "setting": "[2]", "result": "relatively high affinity binding"}, {"measurement": "binding to the MR", "setting": "[3]", "result": "relatively high affinity binding"}]}
{"smiles": "C[C@]12C=CC(=O)C=C1CC[C@@H]1[C@@H]2[C@@H](O)C[C@@]2(C)[C@H]1CC[C@]2(O)C(=O)CO", "note": "[prednisolone, reference compound]", "values": [{"measurement": "GRE-dependent gene transcription (luciferase)", "setting": "[1]", "result": "significant dose-dependent response"}]}
